For one data set, the target named is human 11β-HSD1 (Homo sapiens, UniProt P28845). Put plainly: Cellular 11β-HSD1 inhibition assay. To be noted: for inhibition at 1 µM: HEK293, read-out: Percent inhibition measured at 1 μM.
Where [1] appears, read: ratio of IC50 values, human 11β-HSD1.

pIC50: −log10 of the molar value. Marks after values point to notes of the source that are not given here.

The results in this text go back to PMC3179844 (Chemmedchem, 2011).

Chain of human 11β-HSD1 (P28845 whole entry): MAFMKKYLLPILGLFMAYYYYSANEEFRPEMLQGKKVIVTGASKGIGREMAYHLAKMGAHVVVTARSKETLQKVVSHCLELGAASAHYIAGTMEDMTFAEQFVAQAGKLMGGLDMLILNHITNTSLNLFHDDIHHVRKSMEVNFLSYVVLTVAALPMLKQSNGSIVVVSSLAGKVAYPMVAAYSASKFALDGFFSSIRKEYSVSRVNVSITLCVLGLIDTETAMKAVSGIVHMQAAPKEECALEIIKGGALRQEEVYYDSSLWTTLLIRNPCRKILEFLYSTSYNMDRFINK

Consider “6-{[2-(Adamantan-1-yl)-2-oxoethyl]sulfanyl}-N-methylpyridine-3-carboxamide [Compound 25]”, for which, at human 11β-HSD1 (1 μM, HEK293/HSD11B1 cells, mean of two measurements), the “Percent inhibition measured at 1 μM” value amounted to 73 % ^[b]. As for `Cc1cccc(OCC(=O)C23CC4CC(CC(C4)C2)C3)n1` [Compound 6, 1-(Adamantan-1-yl)-2-[(6-methylpyridin-2-yl)oxy]ethan-1-one], the melting point (as a rule, the temperature, or range, at which the solid turns liquid) lay within 85 to 87 °C. For the same molecule, the pIC50 – broadly, the negative decadic logarithm of the IC50, by convention in mol/L – at human 11β-HSD1 (IC50, human 11β-HSD1, HEK293/HSD11B1 cells) is 5.51. Consider `O=C(COc1cccc(Cl)n1)C12CC3CC(CC(C3)C1)C2` [Compound 7, 1-(Adamantan-1-yl)-2-[(6-chloropyridin-2-yl)oxy]ethan-1-one], for which the melting point lay in the range of 90 to 93 °C. The same measure, in the same setting: as for `O=C(COc1ccc(C(F)(F)F)cn1)C12CC3CC(CC(C3)C1)C2` [Compound 8, 1-(Adamantan-1-yl)-2-{[5-(trifluoromethyl)pyridin-2-yl]oxy}ethan-1-one], the figure is 102 to 104 °C; as for `O=C(COc1cncc(Cl)c1)C12CC3CC(CC(C3)C1)C2` [Compound 9, 1-(Adamantan-1-yl)-2-[(5-chloropyridin-3-yl)oxy]ethan-1-one], 127 to 128 °C; as for `O=C(COc1cccnc1Cl)C12CC3CC(CC(C3)C1)C2` [Compound 10, 1-(Adamantan-1-yl)-2-[(2-chloropyridin-3-yl)oxy]ethan-1-one], 125 to 128 °C. Take `Cc1ccc(OCC(=O)C23CC4CC(CC(C4)C2)C3)cn1` [Compound 11, 1-(Adamantan-1-yl)-2-[(6-methylpyridin-3-yl)oxy]ethan-1-one]: the melting point lay in the range of 86 to 87 °C. In addition, the “fold improvement in activity compared with the 2-pyridyl analogue 6” value on human 11β-HSD1 (setting [1]) was 38 fold.

`Cc1cccc(SCC(=O)C23CC4CC(CC(C4)C2)C3)n1` [Compound 14, 1-(Adamantan-1-yl)-2-[(6-methylpyridin-2-yl)sulfanyl]ethan-1-one] gave a melting point of 116 to 117 °C. Moreover, on human 11β-HSD1, the inhibition (in general, the share of the control response that was lost under treatment) at 1 µM amounted to 70%. Consider `O=C(CSc1ccncc1)C12CC3CC(CC(C3)C1)C2` [Compound 15, 1-(Adamantan-1-yl)-2-(pyridin-4-ylsulfanyl)ethan-1-one], for which the melting point lay within 114 to 115 °C. Same read-out and setting: as for `O=C(CS(=O)(=O)c1ccccn1)C12CC3CC(CC(C3)C1)C2` [Compound 19, 1-(Adamantan-1-yl)-2-(pyridine-2-sulfonyl)ethan-1-one], the figure is 129 to 131 °C. On the same count and under the same terms, the value for `Cc1cccc(S(=O)(=O)CC(=O)C23CC4CC(CC(C4)C2)C3)n1` [Compound 20, 1-(Adamantan-1-yl)-2-(6-methylpyridine-2-sulfonyl)ethan-1-one] was 151 to 152 °C; that for `O=C(CS(=O)(=O)c1ccncc1)C12CC3CC(CC(C3)C1)C2` [Compound 21, 1-(Adamantan-1-yl)-2-(pyridine-4-sulfonyl)ethan-1-one] was 143 to 144 °C. As for `O=C(CSc1ccc(C(F)(F)F)cn1)C12CC3CC(CC(C3)C1)C2` [Compound 22, 1-(Adamantan-1-yl)-2-{[5-(trifluoromethyl)pyridin-2-yl]sulfanyl}ethan-1-one], the melting point was 141 to 142 °C. In addition, the “fold reduction in activity compared with the unsubstituted derivative 13” value on human 11β-HSD1 (setting [1]) was determined as 51 fold. As to `O=C(O)c1ccc(SCC(=O)C23CC4CC(CC(C4)C2)C3)nc1` [Compound 23, 6-{[2-(Adamantan-1-yl)-2-oxoethyl]sulfanyl}pyridine-3-carboxylic acid], the melting point lay within 174 to 176 °C. Same read-out and setting: as for `NC(=O)c1ccc(SCC(=O)C23CC4CC(CC(C4)C2)C3)nc1` [Compound 24, 6-{[2-(Adamantan-1-yl)-2-oxoethyl]sulfanyl}pyridine-3-carboxamide], the figure is 172 to 174 °C; as for `CCNC(=O)c1ccc(SCC(=O)C23CC4CC(CC(C4)C2)C3)nc1` [Compound 26, 6-{[2-(Adamantan-1-yl)-2-oxoethyl]sulfanyl}-N-ethylpyridine-3-carboxamide], 136 to 137 °C; as for `CN(C)C(=O)c1ccc(SCC(=O)C23CC4CC(CC(C4)C2)C3)nc1` [Compound 27, 6-{[2-(Adamantan-1-yl)-2-oxoethyl]sulfanyl}-N,N-dimethylpyridine-3-carboxamide], 63 to 65 °C.

`O=C(COCc1ccc(C(F)(F)F)nc1)C12CC3CC(CC(C3)C1)C2` [Compound 34, 1-(Adamantan-1-yl)-2-{[6-(trifluoromethyl)pyridin-3-yl]methoxy}ethan-1-one] yielded a melting point of 106 to 109 °C. The inhibition at 1 µM at human 11β-HSD1 turned out to be 33%.

For `ON=C(COCc1ccccn1)C12CC3CC(CC(C3)C1)C2` [Compound 35, N-[1-(Adamantan-1-yl)-2-(pyridin-2-ylmethoxy)ethylidene]hydroxylamine], on human 11β-HSD1 (1 μM, HEK293/HSD11B1 cells), the “inhibition at 1 μM (in words)” value is “none of the oxime compound shows any significant inhibition”.

Regarding `ON=C(COCc1cccnc1)C12CC3CC(CC(C3)C1)C2` [Compound 36, N-[1-(Adamantan-1-yl)-2-(pyridin-3-ylmethoxy)ethylidene]hydroxylamine], the melting point is 115 to 117 °C. The “inhibition at 1 μM (in words)” value on human 11β-HSD1 (1 μM, HEK293/HSD11B1 cells) is given as “none of the oxime compound shows any significant inhibition”. Turning to `O=C(CSCc1ccccn1)C12CC3CC(CC(C3)C1)C2` [Compound 37, 1-(Adamantan-1-yl)-2-[(pyridin-2-ylmethyl)sulfanyl]ethan-1-one], the melting point is 38 to 39 °C. Same read-out and setting: the value for `O=C(CSCc1cccnc1)C12CC3CC(CC(C3)C1)C2` [Compound 38, 1-(Adamantan-1-yl)-2-[(pyridin-3-ylmethyl)sulfanyl]ethan-1-one] was 45 to 47 °C. Turning to `O=C(CSCc1ccc(C(F)(F)F)nc1)C12CC3CC(CC(C3)C1)C2` [Compound 48, 1-(Adamantan-1-yl)-2-({[6-(trifluoromethyl)pyridin-3-yl]methyl}sulfanyl)ethan-1-one], the melting point is 80 to 82 °C. In addition, the inhibition at 1 µM at human 11β-HSD1 was 20%. On to `O=C(NCC(=O)C12CC3CC(CC(C3)C1)C2)c1ccccn1` [Compound 56, N-[2-(Adamantan-1-yl)-2-oxoethyl]pyridine-2-carboxamide], for which the melting point was 135 to 136 °C. The same measure, in the same setting: as for `Cc1cccc(C(=O)NCC(=O)C23CC4CC(CC(C4)C2)C3)n1` [Compound 57, N-[2-(Adamantan-1-yl)-2-oxoethyl]-6-methylpyridine-2-carboxamide], the figure is 110 to 111 °C; as for `O=C(NCC(=O)C12CC3CC(CC(C3)C1)C2)c1cccnc1` [Compound 58, N-[2-(Adamantan-1-yl)-2-oxoethyl]pyridine-3-carboxamide], 114 to 115 °C; as for `O=C(NCC(=O)C12CC3CC(CC(C3)C1)C2)c1ccncc1` [Compound 59, N-[2-(Adamantan-1-yl)-2-oxoethyl]pyridine-4-carboxamide], 147 to 149 °C.

In turn, `O=C(Cc1ccccn1)NCC(=O)C12CC3CC(CC(C3)C1)C2` [Compound 60, N-[2-(Adamantan-1-yl)-2-oxoethyl]-2-(pyridin-2-yl)acetamide] had a melting point of 137 to 139 °C. Same read-out and setting: the value for `O=C(Cc1cccnc1)NCC(=O)C12CC3CC(CC(C3)C1)C2` [Compound 61, N-[2-(Adamantan-1-yl)-2-oxoethyl]-2-(pyridin-3-yl)acetamide] was 115 to 117 °C.
